Results on 42 compounds are retold here after US20250215014A1, “KINASE INHIBITORS, PREPARATION METHODS AND USES THEREOF” (InventisBio Co., Ltd., priority 2022, published 2025).

Assay [1] has as its target DGKz (Homo sapiens (Human), UniProt Q13574). Description: DGK ADP-Glo Kinase Assay (DGKz). It is filed as biochemical. The note with it: 5 nM DGKz, 15 uM ATP. As for the experimental part: (§1) Luminescence was recorded using an Tecan SPARK microplate reader.
For orientation: ADP-Glo turns the ADP formed in a reaction into a luminescent signal.

Assay [2] deals with DGKa (Homo sapiens (Human), UniProt P23743). Description: DGK ADP-Glo Kinase Assay (DGKa). It is filed as biochemical. The note with it: 10 nM DGKa, 15 uM ATP. Here is the method:
as §1

The structures appear in SMILES notation.

DGKz, sequence (Q13574 whole entry): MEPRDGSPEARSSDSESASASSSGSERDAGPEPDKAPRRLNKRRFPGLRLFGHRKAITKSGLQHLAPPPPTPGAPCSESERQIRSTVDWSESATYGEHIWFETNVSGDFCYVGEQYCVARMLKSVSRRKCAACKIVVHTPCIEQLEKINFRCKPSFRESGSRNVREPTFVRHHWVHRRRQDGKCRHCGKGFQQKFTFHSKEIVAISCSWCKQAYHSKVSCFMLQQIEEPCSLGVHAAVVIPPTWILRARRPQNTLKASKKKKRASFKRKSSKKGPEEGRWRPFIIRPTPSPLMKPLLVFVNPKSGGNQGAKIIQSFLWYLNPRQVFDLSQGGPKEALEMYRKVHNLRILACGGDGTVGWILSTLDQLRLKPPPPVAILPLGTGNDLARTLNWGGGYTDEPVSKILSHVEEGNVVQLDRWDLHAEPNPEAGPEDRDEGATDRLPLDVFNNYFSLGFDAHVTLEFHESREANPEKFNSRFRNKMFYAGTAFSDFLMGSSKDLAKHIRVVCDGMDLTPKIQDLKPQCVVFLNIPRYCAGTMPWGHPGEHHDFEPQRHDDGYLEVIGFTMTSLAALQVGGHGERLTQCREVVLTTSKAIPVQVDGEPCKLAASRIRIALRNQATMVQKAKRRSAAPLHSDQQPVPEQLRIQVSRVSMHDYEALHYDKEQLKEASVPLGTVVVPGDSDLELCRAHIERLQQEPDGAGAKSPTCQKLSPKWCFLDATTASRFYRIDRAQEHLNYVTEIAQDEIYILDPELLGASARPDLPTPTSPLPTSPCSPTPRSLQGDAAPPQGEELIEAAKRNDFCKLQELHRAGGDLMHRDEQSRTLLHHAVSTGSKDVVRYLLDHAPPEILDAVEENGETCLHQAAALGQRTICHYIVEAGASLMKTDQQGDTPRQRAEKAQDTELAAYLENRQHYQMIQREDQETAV
DGKa, sequence (P23743 whole entry): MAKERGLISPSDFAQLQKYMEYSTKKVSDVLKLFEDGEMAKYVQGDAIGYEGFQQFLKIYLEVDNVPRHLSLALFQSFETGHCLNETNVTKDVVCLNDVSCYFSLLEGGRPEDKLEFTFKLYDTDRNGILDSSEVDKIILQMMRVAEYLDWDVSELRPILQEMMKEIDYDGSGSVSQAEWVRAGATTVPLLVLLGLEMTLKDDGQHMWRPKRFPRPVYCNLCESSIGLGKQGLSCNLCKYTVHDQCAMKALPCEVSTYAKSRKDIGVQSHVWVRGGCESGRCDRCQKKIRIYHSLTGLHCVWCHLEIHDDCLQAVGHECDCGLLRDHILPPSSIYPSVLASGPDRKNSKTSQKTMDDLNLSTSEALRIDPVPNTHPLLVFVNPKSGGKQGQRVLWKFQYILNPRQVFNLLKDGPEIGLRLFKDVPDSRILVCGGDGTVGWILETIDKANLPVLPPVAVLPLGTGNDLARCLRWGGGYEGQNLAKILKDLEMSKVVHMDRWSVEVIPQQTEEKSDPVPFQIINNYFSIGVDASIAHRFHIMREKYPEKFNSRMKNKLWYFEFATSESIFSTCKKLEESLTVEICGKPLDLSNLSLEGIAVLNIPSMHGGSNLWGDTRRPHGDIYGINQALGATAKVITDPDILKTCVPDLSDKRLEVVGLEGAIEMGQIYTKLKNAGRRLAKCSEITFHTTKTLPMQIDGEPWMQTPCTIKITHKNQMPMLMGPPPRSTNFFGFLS

The term IC50 denotes the concentration that gives 50% inhibition. A higher IC50 goes with a need for much substance. In the case of `CC[C@H]1CN([C@@H]2CCCCc3cc(C(F)(F)F)ccc32)[C@H](CC)CN1c1nc2nncn2c2ccc(C#N)nc12` [Compound 114], the IC50 in assay [1] and in assay [2] was < 100 nM throughout.

On to `CC[C@H]1CN([C@H](CC)c2cccc(C(F)(F)F)c2)[C@H](CC)CN1c1nc2nncn2c2ccc(C#N)nc12` (stereo in doubt) [Compound 106], for which the values for the IC50 in assay [1] and in assay [2] were 100 to 1000 nM and < 100 nM, respectively.

With `CC[C@H]1C[C@]2(CCN1c1nc(=O)n(C)c3ccc(C#N)nc13)CC(c1ccc(OC(F)(F)F)cc1)=NO2` (stereo in doubt) [Compound 74], the IC50 in assay [1] was > 1000 nM; in assay [2] it was < 100 nM.

Consider `Cc1ccc2oc(C3CCN(c4nc(=O)n(C)c5cc(O[C@@H]6CCOC6)c(Cl)cc45)CC3)nc2c1` [Compound 32], for which the IC50 was > 1000 nM in assay [1] and < 100 nM in assay [2].

In the case of `CC[C@H]1CN([C@H](C)c2ccc(SC(F)(F)F)cc2)[C@H](CC)CN1c1nc2nncn2c2ccc(C#N)nc12` (stereo in doubt) [Compound 52], the IC50 was 100 to 1000 nM in assay [1] and < 100 nM in assay [2].

With `CC[C@H]1CN([C@@H](c2ccc(S(F)(F)(F)(F)F)cc2)c2nc(C3CC3)cs2)[C@H](CC)CN1c1nc(=O)n(C)c2ccc(C#N)nc12` [Compound 99], the IC50 in assay [1] and in assay [2] was < 100 nM in each case.

Turning to `CC[C@H]1CN([C@@H](c2ccc(SC(F)(F)F)cc2)c2nc(C3CC3)cs2)[C@H](CC)CN1c1nc(=O)n(C)c2ccc(C#N)nc12` [Compound 58], the IC50 was 100 to 1000 nM in assay [1] and < 100 nM in assay [2].

With `CC[C@H]1C[C@H](Oc2ccc(OC(F)(F)F)cc2)CCN1c1nc(=O)n(C)c2ccc(C#N)nc12` (stereo in doubt) [Compound 18], the IC50 in assay [1] was 100 to 1000 nM; in assay [2], < 100 nM.

On to `CC[C@@H]1C[C@H](Oc2ccc(OC(F)(F)F)cc2)CCN1c1nc(=O)n(C)c2ccc(C#N)nc12` [Compound 16], for which the IC50 was < 100 nM in assay [1] and 100 to 1000 nM in assay [2].

`CC[C@H]1CN([C@@H](CC)c2ccc(C(F)(F)F)cc2)[C@H](CC)CN1c1nc2nncn2c2ccc(C#N)nc12` (single isomer, unassigned) [Compound 109]: the IC50 in assay [1] and in assay [2] was < 100 nM throughout.

`CC[C@H]1CN(C(c2ccc(S(F)(F)(F)(F)F)cc2)C2CC2)[C@H](CC)CN1c1nc(=O)n(C)c2ccc(C#N)nc12` (single isomer, unassigned) [Compound 117]: the IC50 was 100 to 1000 nM in assay [1] and < 100 nM in assay [2].

For `CC[C@H]1CN([C@@H](CC)c2ccc(S(F)(F)(F)(F)F)cc2)[C@H](CC)CN1c1nc(=O)n2c3c(cc(C#N)nc13)OCC2` (stereo in doubt) [Compound 83], the results for the IC50 in assay [1] and in assay [2] were 100 to 1000 nM and < 100 nM, respectively.

In the case of `CC[C@@H]1CN(c2nc3nncn3c3ccc(C#N)nc23)[C@@H](CC)CN1C(=O)Nc1ccc(C(F)(F)F)cc1` [Compound 95], the figures for the IC50 in assay [1] and in assay [2] were 100 to 1000 nM and < 100 nM, respectively.

With `CC[C@H]1CN([C@@H](C)c2ccc(S(F)(F)(F)(F)F)cc2)[C@H](CC)CN1c1nc(=O)n(C)c2ccc(C#N)nc12` (stereo in doubt) [Compound 62], the values for the IC50 in assay [1] and in assay [2] were 100 to 1000 nM and < 100 nM, respectively.

Consider `CC[C@H]1CN([C@@H](CC)c2ccc(SC(F)(F)F)cc2)[C@H](CC)CN1c1nc2nncn2c2ccc(C#N)nc12` (single isomer, unassigned) [Compound 69], for which the IC50 in assay [1] was 100 to 1000 nM; in assay [2], < 100 nM.

As for `CC[C@H]1CN([C@@H](CC)c2ccc(OC(F)(F)F)cc2)[C@H](CC)CN1c1nc2nncn2c2ccc(C#N)nc12` (single isomer, unassigned) [Compound 100], the IC50 in assay [1] and in assay [2] was < 100 nM throughout.

For `CC[C@@H]1CN(c2nc3nncn3c3ccc(C#N)nc23)[C@@H](C)CN1[C@H](CC)c1ccc(C(F)(F)F)cc1` (stereo in doubt) [Compound 82], the IC50 in assay [1] is 100 to 1000 nM; in assay [2], < 100 nM.

Turning to `CC[C@H]1CN([C@H](CC)c2ccc(OC(F)(F)F)cc2)[C@H](CC)CN1c1nc2nncn2c2ccc(C#N)nc12` (stereo in doubt) [Compound 101], the IC50 in assay [1] was 100 to 1000 nM; in assay [2], < 100 nM.

Regarding `CC[C@@H]1CN2c3c(c(=O)n(C)c4ccc(C#N)nc34)OC[C@H]2CN1[C@H](CC)c1ccc(S(F)(F)(F)(F)F)cc1` [Compound 108], the IC50 in assay [1] was 100 to 1000 nM; in assay [2], < 100 nM.

On to `CC[C@@H]1CN2c3c(c(=O)n(C)c4ccc(C#N)nc34)OC[C@H]2CN1[C@@H](CC)c1ccc(C(F)(F)F)cc1` [Compound 107], for which the results for the IC50 in assay [1] and in assay [2] were 100 to 1000 nM and < 100 nM, respectively.

Take `N#Cc1cc2c3c(n1)c(N1CCC4(CC1)CC(c1ccc(OC(F)(F)F)cc1)=NO4)nc(=O)n3CCO2` [Compound 59]: the IC50 in assay [1] was 100 to 1000 nM; in assay [2] it was < 100 nM.

As for `CC[C@H]1C[C@@H](c2nc3cc(C)ccc3o2)CCN1c1nc(=O)n(C)c2cc(O[C@H]3CCOC3)c(Cl)cc12` [Compound 93], the IC50 in assay [1] is 100 to 1000 nM; in assay [2], < 100 nM.

For `CC[C@H]1CN([C@H](c2ccc(S(F)(F)(F)(F)F)cc2)c2nc(C3CC3)cs2)[C@H](CC)CN1c1nc(=O)n(C)c2ccc(C#N)nc12` [Compound 98], the IC50 in assay [1] and in assay [2] was < 100 nM in each case.

As to `CC[C@@H]1C[C@H](c2nc3cc(C)ccc3o2)CCN1c1nc(=O)n(C)c2cc(O[C@H]3CCOC3)c(Cl)cc12` [Compound 91], the IC50 in assay [1] was > 1000 nM; in assay [2] it was < 100 nM.

Consider `Cn1c(=O)nc(N2CCC3(CC2)CC(c2cccc(C(F)(F)F)c2)=NO3)c2nc(C#N)ccc21` [Compound 47], for which the 50% inhibitory concentration (IC50) in assay [1] and in assay [2] was < 100 nM each time.

Consider `Cc1ccccc1-n1cc(C2CCN(c3nc(=O)n(C)c4ccc(C#N)nc34)CC2)cn1` [Compound 12], for which the IC50 in assay [1] and in assay [2] was > 1000 nM each time.

For `CC[C@H]1CN([C@H](CC)c2ccc(C(F)(F)F)nc2)[C@H](CC)CN1c1nc2nncn2c2ccc(C#N)nc12` (stereo in doubt) [Compound 112], the IC50 in assay [1] was 100 to 1000 nM; in assay [2], < 100 nM.

For `CCC(c1ccc(C(F)(F)F)cc1)N1CCN(c2nc3nncn3c3ccc(C#N)nc23)C(CC)C1` (stereo not drawn) [Compound 102], the results for the IC50 in assay [1] and in assay [2] were > 1000 nM and < 100 nM, respectively.

Regarding `CC[C@H]1CN([C@@H](CC)c2ccc(S(F)(F)(F)(F)F)cc2)[C@H](CC)CN1c1nc2nncn2c2ccc(C#N)nc12` (stereo in doubt) [Compound 86], the IC50 in assay [1] and in assay [2] was < 100 nM in each case.

As to `CC[C@@H]1CN(c2nc3nncn3c3ccc(C#N)nc23)[C@@H](C)CN1[C@@H](CC)c1ccc(C(F)(F)F)cc1` (single isomer, unassigned) [Compound 81], the IC50 in assay [1] and in assay [2] was < 100 nM in each case.

For `CC[C@H]1CN(C(CO)c2ccc(S(F)(F)(F)(F)F)cc2)[C@H](CC)CN1c1nc(=O)n(C)c2ccc(C#N)nc12` (stereo partly drawn) [Compound 77], the IC50 in assay [1] and in assay [2] was < 100 nM in each case.

For `CC[C@H]1CN([C@H](CC)c2ccc(C(F)(F)F)cc2)[C@H](CC)CN1c1nc2nncn2c2ccc(C#N)nc12` (single isomer, unassigned) [Compound 35], the results for the IC50 in assay [1] and in assay [2] were 100 to 1000 nM and < 100 nM, respectively.

On to `CC[C@H]1CN([C@@H](CC)c2ccc(C(F)(F)F)nc2)[C@H](CC)CN1c1nc2nncn2c2ccc(C#N)nc12` (stereo in doubt) [Compound 111], for which the IC50 in assay [1] and in assay [2] was < 100 nM in each case.

For the compound `CC[C@H]1CN([C@H](c2ccc(SC(F)(F)F)cc2)c2nc(C3CC3)no2)[C@H](CC)CN1c1nc(=O)n(C)c2ccc(C#N)nc12` (stereo in doubt) [Compound 70], the IC50 in assay [1] and in assay [2] was < 100 nM each time.

With `CC[C@@H]1CN(c2nc(=O)n(C)c3ccc(C#N)nc23)[C@@H](C)CN1[C@@H](CC)c1ccc(S(F)(F)(F)(F)F)cc1` (stereo in doubt) [Compound 60], the IC50 in assay [1] and in assay [2] was < 100 nM in each case.

With `CC[C@H]1CN([C@H](CC)c2ccc(OC)cc2F)[C@H](CC)CN1c1nc2nncn2c2ccc(C#N)nc12` (stereo in doubt) [Compound 116], the figures for the IC50 in assay [1] and in assay [2] were 100 to 1000 nM and < 100 nM, respectively.

For the compound `CC[C@H]1CN([C@H](CC)c2nc(C3CC3)no2)[C@H](CC)CN1c1nc2nncn2c2ccc(C#N)nc12` [Compound 120], the IC50 in assay [1] was 100 to 1000 nM; in assay [2] it was < 100 nM.

`CC[C@H]1CN([C@H](CC)c2ccc(S(F)(F)(F)(F)F)cc2)[C@H](CC)CN1c1nc(=O)n2c3c(cc(C#N)nc13)OCC2` (stereo in doubt) [Compound 79]: the IC50 in assay [1] and in assay [2] was 100 to 1000 nM each time.

Consider `CC[C@@H]1CN(c2nc3nncn3c3ccc(C#N)nc23)[C@@H](C)CN1[C@@H](CC)c1ccc(SC(F)(F)F)cc1` (stereo in doubt) [Compound 66], for which the IC50 in assay [1] and in assay [2] was < 100 nM each time.

On to `CC[C@H]1CN([C@H](CC)c2cccc(S(F)(F)(F)(F)F)c2)[C@H](CC)CN1c1nc(=O)n(C)c2ccc(C#N)nc12` (stereo in doubt) [Compound 55], for which the IC50 in assay [1] and in assay [2] was < 100 nM each time.

Consider `CC[C@H]1CN([C@H]2CCCCc3cc(C(F)(F)F)ccc32)[C@H](CC)CN1c1nc2nncn2c2ccc(C#N)nc12` [Compound 113], for which the results for the IC50 in assay [1] and in assay [2] were 100 to 1000 nM and < 100 nM, respectively.

As for `CC[C@@H]1CN2c3c(c(=O)n(C)c4ccc(C#N)nc34)OC[C@@H]2CN1[C@H](CC)c1ccc(C(F)(F)F)cc1` [Compound 122], the IC50 in assay [1] and in assay [2] was < 100 nM throughout.
